The text below walks through data of patent publication EP0427799B1, “METHOD AND COMPOUNDS FOR AICA RIBOSIDE DELIVERY AND FOR LOWERING BLOOD GLUCOSE” (GENSIA, INC., priority 1989, dated 1990).

The term AUC denotes concentration integrated over time. Low values mean low exposure, high ones high exposure. The Cmax is the highest concentration seen after dosing. The term Tmax denotes the time from dosing to the highest level. Usually IC50 stands for the concentration that inhibits the measured activity by half. A word on the Ki: it is a dissociation constant, usually derived from enzyme kinetics or from competition with a known ligand. The low end stands for tighter binding, the high end for weaker binding.

One data set has as its system blood glucose. Particulars: several animal species, including man; cited from earlier work.
The next data set in a line: in vivo. On the set-up: species or system dogs. The following applies: dog; for AUC / Cmax / Tmax: po. How it is done:
The bioavailability of AICA riboside after oral administration of either AICA riboside or one of the AICA riboside prodrugs of the present invention was evaluated in dogs. Plasma concentrations of AICA riboside and intact prodrug were measured using HPLC. (See Dixon, R., et al., Res. Commun. Chem. Path. Pharm. 65:405-408 (1989)). Bioavailability of AICA riboside was evaluated in terms of the time required to reach maximum plasma concentration (Tmax), the maximum concentration achieved (Cmax) and the area under the plasma concentration-time curve (AUC) from time zero to the last measurable plasma concentration. Absolute bioavailability (F%) was calculated by dividing the AUC for AICA riboside following oral administration of the prodrug (or AICA riboside itself) by the AUC following intravenous administration of an equivalent amount of AICA riboside (100% bioavailability).

The test system of a further data set is plasma glucose. As to the kind of experiment: Plasma glucose after adenosine and adenosine receptor agonists I.P. The data set is classed as in vivo. Particulars: administered I.P. in either rats or mice. An excerpt: This leads to investigation of the mechanism of AICA riboside induced hypoglycemia. […] This adenosine induced hyperglycemia is reversed by adenosine receptor antagonists (theophylline and sulphophenyltheophylline). Additionally, the AICA riboside-induced hypoglycemia is not blocked by theophylline. It is therefore concluded that the AICA riboside effect on plasma glucose is not mediated by adenosine. […] (See Figure 13).

A further data set concerns ischemic heart tissue. As to the kind of experiment: Adenosine, AICA riboside and ZMP levels in ischemic heart tissue. The format is in vivo, rats. The following applies: for adenosine concentrations during net ATP breakdown: rat heart ischemia model. The method, then:
Prodrug compounds of the present invention and AICA riboside were tested for their activity in enhancing the production of adenosine and increasing production of AICA riboside from ZMP in ischemic heart tissue in rats.
Samples of heart tissue after ischemia were analyzed for nucleoside and nucleotide levels. Samples were measured for adenosine, AICA riboside and ZMP concentrations by HPLC.

For another data set, the system named is cell culture. As to the kind of experiment: Adenosine concentrations in cell culture during net ATP breakdown. The format is cell-based. The source says:
(§1) We have expanded this work on AICA riboside and S-AICA riboside homocysteine to examine other known adenosine kinase inhibitors as adenosine releasing agents. The flux (substrate made into product per unit of time), through adenosine kinase under physiological conditions is low; substrate metabolism is low partly due to low substrate availability. However, during net ATP catabolism, substrate availability (i.e. adenosine concentration) dramatically increases. […] (See Figure 15).

The next data set concerns HTL-induced seizures. As to the kind of experiment: Inhibition of HTL-induced seizures. The data set is classed as in vivo. The following applies: mice. How it is done:
Compounds were tested for their activities in inhibiting HTL-induced seizures in rats.
Animals used were male Swiss Webster mice weighing 21-30 grams (Charles River Breeding Labs, Wilmington, MA). All animals were adapted to the laboratory for at least 5 days prior to use.
All solutions to be injected were prepared as a single injection cocktail at a concentration such that 1 ml per 100 g of body weight yielded the desired dose. The solutions were compounded as follows: Homocysteine Thiolactone - HCl (HTL-HCl) (Sigma Chemical Company, St. Louis, MO) was dissolved in distilled water and the pH adjusted to 6.7 with NaOH. Pentylenetetrazol (PTZ) was dissolved in 0.9% saline. Prodrug compounds or AICA riboside (Sigma) when used alone was dissolved in distilled water. All solutions containing Mioflazine (Janssen Pharmaceuticals) were prepared at a final DMSO concentration of 10-15% as were the Dipyridamole (Sigma) solutions. N-ethylcarboxamide adenosine, NECA (Sigma) and Flunitrazepam (Hoffman La Roche) injections were prepared in a final ethanol concentration of 0.2%. In all cases carrier control solutions of carrier were injected that were matched for both tonicity and solvents to the test solutions. All test and control solutions were injected via a bolus, I.P., using a 27 gauge needle. HTL and PTZ were injected subcutaneously in the upper back of the animal. […]

The next data set relates to PTZ induced seizures. As to the kind of experiment: Inhibition of PTZ-induced seizures. The format is in vivo. Particulars: mice. The method, then: All solutions to be injected were prepared as a single injection cocktail at a concentration such that 1 ml per 100 g of body weight yielded the desired dose. The solutions were compounded as follows: Homocysteine Thiolactone - HCl (HTL-HCl) (Sigma Chemical Company, St. Louis, MO) was dissolved in distilled water and the pH adjusted to 6.7 with NaOH. Pentylenetetrazol (PTZ) was dissolved in 0.9% saline. Prodrug compounds or AICA riboside (Sigma) when used alone was dissolved in distilled water. All solutions containing Mioflazine (Janssen Pharmaceuticals) were prepared at a final DMSO concentration of 10-15% as were the Dipyridamole (Sigma) solutions. N-ethylcarboxamide adenosine, NECA (Sigma) and Flunitrazepam (Hoffman La Roche) injections were prepared in a final ethanol concentration of 0.2%. In all cases carrier control solutions of carrier were injected that were matched for both tonicity and solvents to the test solutions. All test and control solutions were injected via a bolus, I.P., using a 27 gauge needle. HTL and PTZ were injected subcutaneously in the upper back of the animal.
Animals were preinjected with either control solution containing only carrier or test solution containing candidate compound (prodrug or AICA riboside) and carrier in groups of 6-8 per test solution or control. […]

The nature of data set [1]: Blood pressure and heart rate in rats. The format is in vivo.
From the text: as §1

The target in the next data set is adenosine kinase (Homo sapiens, UniProt P55263). As to the kind of experiment: Inhibition of adenosine kinase. The format is biochemical.
The nature of data set [2]: Enhanced oral bioavailability: tissue ZMP levels after gavage. The format is in vivo, Sprague-Dawley rats. The method, then: AICA riboside was administered to Sprague-Dawley rats at a dose of 250 mg/kg or 500 mg/kg, prodrug compounds of the present invention were administered at an equal molar dose.
At 15, 30, 60 and 120 minutes after gavage, the animals were sacrificed. The tissues were obtained and frozen immediately for nucleoside and nucleotide analysis. The tissue samples obtained were liver, heart, brain and whole blood. After initial freezing in liquid nitrogen, the tissue samples were extracted with trichloroacetic acid and neutralized with alamine freon. The tissue samples were evaluated by HPLC on a Whatman Partsil-10 (SAX) column for nucleosides and bases as described in Example 6. […] Tests were run with 8 rats.
Figures 5(a) and (b) show ZMP concentrations in rat liver at doses of a molar equivalent of 250 mg/kg and 500 mg/kg AICA riboside.

The target in data set [3] is T1, FDPase (Mus musculus, UniProt Q9QXD6).
T1 construct: Liver samples (from the indicated species) were homogenized; from tissue; host or cells: mouse liver homogenate, 45,000 x g supernatant passed over Sephadex G25
As to the kind of experiment: Inhibition of liver FDPase by ZMP (IC50). The format is biochemical. The following applies: Mouse liver homogenate supernatant. The method, then:
(§2) Liver samples (from the indicated species) were homogenized in 20 mM potassium phosphate buffer (pH 7.4) with 100 µM EDTA and 100 µM dithiothreitol. The liver homogenates were centrifuged at 45,000 x/g. The supernatants were passed over a sephadex G25 column and assayed for FDPase activity by the method of Marcus et al (Methods in Enzymology 90: 352-356 (1982)) in the presence of ZMP over a range of concentration and in the absence of ZMP. The IC50 value was defined as the concentration of ZMP, which inhibited 50 percent of the baseline FDPase activity under the assay conditions.

The target of data set [4] is FDPase. As to the kind of experiment: Inhibition of liver FDPase by ZMP (IC50). The format is biochemical. How it is done: as §2
The target of data set [5] is T2, FDPase (Rattus norvegicus, UniProt P19112).
T2 construct: Liver samples (from the indicated species) were homogenized; from tissue; host or cells: rat liver homogenate, 45,000 x g supernatant passed over Sephadex G25
As to the kind of experiment: Inhibition of liver FDPase by ZMP (IC50). The format is biochemical. The following applies: Rat liver homogenate supernatant. The method, then: as §2

The target of data set [6] is T3, FDPase (Homo sapiens, UniProt P09467).
T3 construct: Liver samples (from the indicated species) were homogenized; from tissue; host or cells: human liver homogenate, 45,000 x g supernatant passed over Sephadex G25
As to the kind of experiment: Inhibition of liver FDPase by ZMP (IC50). The data set is classed as biochemical. The following applies: Human liver homogenate supernatant. The method, then:
as §2

The target in data set [7] is T4, FDPase (Oryctolagus cuniculus, UniProt P00637).
T4 construct: Liver samples (from the indicated species) were homogenized; from tissue; host or cells: rabbit liver homogenate, 45,000 x g supernatant passed over Sephadex G25
As to the kind of experiment: Inhibition of liver FDPase by ZMP (IC50). The format is biochemical. Particulars: Rabbit liver homogenate supernatant. The method, then: as §2

In data set [8] the target is T5, fructose diphosphatase ("FDPase") (Oryctolagus cuniculus, UniProt P00637).
T5 construct: fructose -1,6- diphosphatase from rabbit liver (Sigma); purchased Sigma; host or cells: rabbit liver (enzyme isolated from tissue)
As to the kind of experiment: Inhibition of fructose-1,6-diphosphatase from rabbit liver. The data set is classed as biochemical. The source says: Activity was expressed as a velocity (rate of conversion of substrate).

T4 sequence (P00637 2-338 limits assumed): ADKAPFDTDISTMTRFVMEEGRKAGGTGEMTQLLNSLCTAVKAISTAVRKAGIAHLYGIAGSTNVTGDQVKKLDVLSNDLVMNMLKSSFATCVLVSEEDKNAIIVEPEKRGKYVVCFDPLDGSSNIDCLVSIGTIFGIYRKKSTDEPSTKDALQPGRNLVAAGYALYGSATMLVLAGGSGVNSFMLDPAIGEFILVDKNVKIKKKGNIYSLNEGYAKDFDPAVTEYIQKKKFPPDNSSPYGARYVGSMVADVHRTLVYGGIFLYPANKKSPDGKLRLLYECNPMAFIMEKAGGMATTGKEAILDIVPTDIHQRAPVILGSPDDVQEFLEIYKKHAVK
T5 sequence (P00637 2-338 limits assumed): as above
T2 sequence (P19112 2-363 limits assumed): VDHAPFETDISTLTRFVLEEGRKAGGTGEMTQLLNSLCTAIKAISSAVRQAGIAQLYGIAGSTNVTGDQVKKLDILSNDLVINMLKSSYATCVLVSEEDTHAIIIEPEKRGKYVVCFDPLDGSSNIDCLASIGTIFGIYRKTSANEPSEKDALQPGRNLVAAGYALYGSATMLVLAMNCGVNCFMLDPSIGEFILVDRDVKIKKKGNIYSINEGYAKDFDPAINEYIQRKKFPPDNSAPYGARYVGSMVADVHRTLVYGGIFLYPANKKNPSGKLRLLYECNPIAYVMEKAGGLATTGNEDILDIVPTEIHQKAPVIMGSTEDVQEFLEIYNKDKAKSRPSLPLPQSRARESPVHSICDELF
T3 sequence (P09467 2-338 limits assumed): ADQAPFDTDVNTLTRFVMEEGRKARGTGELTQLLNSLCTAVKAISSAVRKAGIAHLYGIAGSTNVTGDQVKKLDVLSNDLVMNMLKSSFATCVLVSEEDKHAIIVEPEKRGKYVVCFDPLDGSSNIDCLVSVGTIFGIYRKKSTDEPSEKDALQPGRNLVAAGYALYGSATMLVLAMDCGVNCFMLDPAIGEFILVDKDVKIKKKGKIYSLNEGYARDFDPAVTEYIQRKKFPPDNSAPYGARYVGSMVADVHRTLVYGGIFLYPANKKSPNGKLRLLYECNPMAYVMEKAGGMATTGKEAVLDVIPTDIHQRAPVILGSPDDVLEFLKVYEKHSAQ
T1 sequence (Q9QXD6 2-338 limits assumed): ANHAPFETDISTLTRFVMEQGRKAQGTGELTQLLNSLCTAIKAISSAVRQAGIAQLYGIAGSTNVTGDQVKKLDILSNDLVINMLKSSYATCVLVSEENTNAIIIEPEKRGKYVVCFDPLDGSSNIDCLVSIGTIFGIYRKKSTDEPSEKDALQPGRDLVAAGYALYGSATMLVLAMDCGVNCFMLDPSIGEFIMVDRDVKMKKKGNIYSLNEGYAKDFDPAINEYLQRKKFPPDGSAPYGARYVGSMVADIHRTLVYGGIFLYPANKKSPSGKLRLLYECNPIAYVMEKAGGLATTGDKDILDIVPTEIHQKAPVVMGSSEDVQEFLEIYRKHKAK
adenosine kinase, sequence (P55263 whole entry, species assumed): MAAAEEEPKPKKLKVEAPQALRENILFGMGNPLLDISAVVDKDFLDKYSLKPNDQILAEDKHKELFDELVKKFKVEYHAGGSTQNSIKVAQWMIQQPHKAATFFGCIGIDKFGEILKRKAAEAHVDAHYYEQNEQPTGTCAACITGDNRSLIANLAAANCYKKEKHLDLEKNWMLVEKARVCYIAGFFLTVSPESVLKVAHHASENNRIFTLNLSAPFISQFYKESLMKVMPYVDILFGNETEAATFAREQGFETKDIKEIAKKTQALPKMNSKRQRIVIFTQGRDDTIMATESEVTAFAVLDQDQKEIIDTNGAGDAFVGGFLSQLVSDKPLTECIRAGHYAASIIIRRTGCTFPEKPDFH

`O=C[C@H](O)[C@H](O)[C@H](O)CO` [Ribose]: the “dose lowering blood glucose” value in the data set on blood glucose is given as “about 1000 mg/kg”.

For the molecule `CC(C)(C)C(=O)OC[C@H]1O[C@@H](n2cnc(C(N)=O)c2N)[C@H](O)[C@@H]1O` [Compound 11, 5'-pivalyl-AICA riboside], in the data set “in vivo”, the F was determined as 44%, the AUC came out at 3700 ng·h/mL, the peak concentration (Cmax) came out at 3200 ng/mL and the Tmax turned out to be 1.0 h.

For `CC(=O)OC[C@H]1O[C@@H](n2cnc(C(N)=O)c2N)[C@H](OC(C)=O)[C@@H]1OC(C)=O` [Compound C1, 2',3',5'-triacetyl AICA riboside], in the data set “in vivo”, the F is on record as 39%, the AUC came to 3200 ng·h/mL, the highest concentration (Cmax) turned out to be 2200 ng/mL and the Tmax was 1.5 h.

With `CCNC(=O)[C@H]1O[C@@H](n2cnc3c(N)ncnc32)[C@H](O)[C@@H]1O` [N-ethylcarboxamide adenosine], the “increases in plasma glucose (hyperglycemia)” value (from here on “increases in plasma glucose”) in the data set on plasma glucose is listed as 200-300%.

Consider `CC(C)C(=O)OC[C@H]1O[C@@H](n2cnc(C(N)=O)c2N)[C@H](O)[C@@H]1O` [Compound 10, 5'-isobutyryl-AICA riboside], for which, in the data set “in vivo”, the F turned out to be 60%, the AUC is 4900 ng·h/mL, the Cmax came out at 5000 ng/mL and the Tmax was determined as 0.75 h.

Turning to `Nc1ncnc2c1c(I)cn2[C@@H]1O[C@H](CO)[C@@H](O)[C@H]1O` [5-iodotubercidin], the “adenosine concentrations during net ATP breakdown” value in the data set with ischemic heart tissue and in the data set with cell culture was “increased adenosine concentrations” throughout.

As for `Nc1ncnc2c1ncn2[C@@H]1O[C@H](CO)[C@@H](O)[C@H]1O` [adenosine, 9-β-D-ribofuranosyladenine], the “increases in plasma glucose” value with plasma glucose is given as 200-300%.

Turning to `NC[C@H]1O[C@@H](n2cnc3c(N)ncnc32)[C@H](O)[C@@H]1O` [5'-amino-5'-deoxyadenosine], the “activity against HTL-induced seizures” value in the data set on HTL-induced seizures is “observed to prevent HTL-induced seizure”. Further, the “adenosine concentrations during net ATP breakdown” value in the data set with ischemic heart tissue and with cell culture was “increased adenosine concentrations” each time. In addition, the “activity against PTZ induced seizures” value in the data set on PTZ induced seizures is “effective in blocking pentylene-tetrazole (PTZ) induced seizures”. Also, the “changes in blood pressure or heart rate” value in [1] is “did not produce any significant changes in blood pressure or heart rate”.

`NC(=O)c1ncn(C2OC(CSCCC(N)C(=O)O)C(O)C2O)c1N` (stereo not shown) [S-AICA riboside homocysteine, S-AICA ribosyl homocysteine]: the “inhibition of adenosine kinase” value against adenosine kinase is recorded as “more potent”.

On to `CC(C)COC(=O)O[C@H]1[C@@H](O)[C@H](n2cnc(C(N)=O)c2N)O[C@@H]1CO` [Prodrug A, 5-amino-3'-(2-methyl-1-propoxycarbonyl)-1-β-D-ribofuranosyl-imidazole-4-carboxamideie], for which, in data set [2] (after an equimolar gavage), the “ZMP accumulation in the liver relative to AICA riboside” value amounted to 5 times. Further, the “oral bioavailability as evidenced by ZMP levels in liver, whole blood and heart” value in data set [2] (rats, gavage, dose equimolar to AICA riboside) is listed as “increased oral bioavailability”. Moreover, the “activity against HTL-induced seizures” value in the data set with HTL-induced seizures was “improved anticonvulsant activity”. Moreover, in the data set with ischemic heart tissue (ischemic heart model, molar basis), the “potency in enhancing adenosine production relative to AICA riboside” value was “about 30%”. For the same molecule, the “Tissue Concentration Adenosine” value with ischemic heart tissue (ischemic rat heart tissue, Prodrug A at dose equimolar to AICA riboside) amounted to 553 ± 46 nmol/g. In addition, the “Tissue Concentration AICA Riboside” value in the data set with ischemic heart tissue (ischemic rat heart tissue, equimolar doses) was 592 ± 55 nmol/g.

For `NC(=O)c1ncn([C@@H]2O[C@H](COP(=O)(O)O)[C@@H](O)[C@H]2O)c1N` [ZMP, AICA riboside-5'-monophosphate], the concentration for half-maximal inhibition (IC50) was found to be 150 µM at FDPase [3]; 50 µM against FDPase [4] (Gerbil liver homogenate supernatant); 12 µM against FDPase [4] (Guinea Pig liver homogenate supernatant); 375 µM against FDPase [5]; 48 µM against FDPase [6]; 41 µM at FDPase [7]. The molecule further yielded an inhibition constant (Ki) in data set [8] of around 40 µM.

`OC[C@H]1O[C@@H](n2cnc3c(NC4CCCCC4)ncnc32)[C@H](O)[C@@H]1O` [cyclohexyladenosine]: in the data set on plasma glucose, the “increases in plasma glucose” value is reported as 200-300%.
